Reference: patent publication US10588317B2, “Isoxazoline-substituted benzamides and analogues as insecticides” (priority 2015, dated 2020)
Where two headings read alike, the source gives them in different places.

Tests used:
Type in all cases: in vivo
Thrips tabaci = Thrips tabaci (onion thrips): feeding/contact activity; conditions: 144 h
Procedure: (§1) Sunflower leaf discs were placed on agar in 24-well microtiter plates and sprayed with aqueous test solutions prepared from 10'000 ppm DMSO stock solutions. After drying the leaf discs were infested with a Thrips population of mixed ages. The samples were assessed for mortality 6 days after infestation.

Euschistus heros = Euschistus heros (neotropical brown stink bug), sprayed soybean leaves; conditions: 120 h, read-out: effect in at least one of the two categories (mortality or growth inhibition); for percent effect (mortality or growth inhibition) at 200 ppm: application rate 200 ppm, N2 nymphs, 5 days after infestation
In short: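 Soybean leaves on agar sprayed with aqueous dilutions of DMSO stocks, dried, then infested with N2 nymphs. Mortality and growth inhibition scored against untreated samples 5 days after infestation; application rate 200 ppm.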

Spodoptera littoralis = Spodoptera littoralis (Egyptian cotton leaf worm), sprayed cotton leaf discs; conditions: foliar, 72 h, read-out: control (mortality, anti-feeding effect, growth inhibition)
In short: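 Cotton leaf discs on agar sprayed with aqueous test solutions made from 10'000 ppm DMSO stock; after drying, infested with five L1 larvae. Mortality, anti-feeding and growth inhibition scored versus untreated samples 3 days after infestation; control counted when any category exceeds untreated.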

Tetranychus urticae = Tetranychus urticae (two-spotted spider mite): feeding/contact activity; conditions: 192 h
Procedure: as §1, with “Bean” for “Sunflower”, “discs” for “discs were placed”, “were” for “and”, “mite” for “Thrips”, “on mixed population (mobile stages) 8” for “6”

Plutella xylostella = Plutella xylostella (diamond back moth), artificial diet; conditions: 120 h, read-out: effect in at least one of the two categories (mortality or growth inhibition); for percent effect (mortality or growth inhibition) at 200 ppm: application rate 200 ppm, L2 larvae, 5 days after infestation
In short: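 Artificial diet in 24-well plates treated with aqueous test solutions made from 10'000 ppm DMSO stocks, dried, then infested with L2 larvae (10 to 15 per well). Mortality and growth inhibition scored against untreated samples 5 days after infestation; activity cut-off at least 80% in either category at 200 ppm.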

Diabrotica balteata = Diabrotica balteata (corn root worm), sprayed maize sprouts; conditions: 96 h, read-out: effect in at least one of the two categories (mortality or growth inhibition); for percent effect (mortality or growth inhibition) at 200 ppm: application rate 200 ppm, L2 larvae, 4 days after infestation
In short: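 Maize sprouts on agar sprayed with aqueous dilutions of DMSO stocks, dried, then infested with L2 larvae (6–10 per well). Mortality and growth inhibition scored against untreated controls 4 days after infestation, at 200 ppm application rate.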

Myzus persicae = Myzus persicae (green peach aphid): feeding/contact activity; conditions: 144 h
Procedure: Sunflower leaf discs were placed onto agar in a 24-well microtiter plate and sprayed with aqueous test solutions prepared from 10'000 ppm DMSO stock solutions. After drying, the leaf discs were infested with an aphid population of mixed ages. The samples were assessed for mortality 6 days after infestation.

[1] = application rate 200 ppm, Thrips population of mixed ages, 6 days after infestation, read-out: mortality
[2] = application rate 200 ppm, L1 larvae, 3 days after infestation
[3] = application rate 200 ppm, mixed population (mobile stages), 8 days after infestation, read-out: mortality
[4] = application rate 200 ppm, aphid population of mixed ages, 6 days after infestation, read-out: mortality

CCCS(=O)(=O)N1CC(NC(=O)c2ccc(C3=NO[C@@](c4cc(Cl)c(F)c(Cl)c4)(C(F)(F)F)C3)cc2C)CO1 (stereo partly shown) [Compound A3]
≥ 80%: mortality at 200 ppm (Thrips tabaci; [1]) | percent effect (mortality or growth inhibition) at 200 ppm (Euschistus heros) | mortality at 200 ppm (Spodoptera littoralis; [2]) | mortality at 200 ppm (Tetranychus urticae; [3]) | percent effect (mortality or growth inhibition) at 200 ppm (Plutella xylostella) | percent effect (mortality or growth inhibition) at 200 ppm (Diabrotica balteata) | mortality at 200 ppm (Myzus persicae; [4])

Cc1cc(C2=NO[C@@](c3cc(Cl)c(F)c(Cl)c3)(C(F)(F)F)C2)ccc1C(=O)NC1CON(S(=O)(=O)N(C)S(=O)(=O)N(C)C)C1 (stereo partly drawn) [Compound A79, 4-[(5S)-5-(3,5-dichloro-4-fluoro-phenyl)-5-(trifluoromethyl)-4H-isoxazol-3-yl]-N-[2-[dimethylsulfamoyl(methyl)sulfamoyl]isoxazolidin-4-yl]-2-methyl-benzamide]
≥ 80%: mortality at 200 ppm (Thrips tabaci; [1]) | percent effect (mortality or growth inhibition) at 200 ppm (Euschistus heros) | mortality at 200 ppm (Spodoptera littoralis; [2]) | mortality at 200 ppm (Tetranychus urticae; [3]) | percent effect (mortality or growth inhibition) at 200 ppm (Plutella xylostella) | percent effect (mortality or growth inhibition) at 200 ppm (Diabrotica balteata) | mortality at 200 ppm (Myzus persicae; [4])

Cc1cc(C2=NO[C@@](c3cc(Cl)c(F)c(Cl)c3)(C(F)(F)F)C2)ccc1C(=O)N[C@@H]1CON(S(=O)(=O)F)C1 [Compound A213, (4S)-4-[[4-[(5S)-5-(3,5-dichloro-4-fluorophenyl)-5-(trifluoromethyl)-4H-1,2-oxazol-3-yl]-2-methylbenzoyl]amino]-1,2-oxazolidine-2-sulfonyl fluoride]
≥ 80%: mortality at 200 ppm (Thrips tabaci) | percent control (mortality or growth inhibition) at 200 ppm (Euschistus heros) | mortality at 200 ppm (Spodoptera littoralis) | mortality at 200 ppm (Tetranychus urticae) | percent control (mortality or growth inhibition) at 200 ppm (Plutella xylostella) | percent control (mortality or growth inhibition) at 200 ppm (Diabrotica balteata) | mortality at 200 ppm (Myzus persicae)

Cc1cc(C2=NO[C@@](c3cc(Cl)c(Cl)c(Cl)c3)(C(F)(F)F)C2)ccc1C(=O)N[C@H]1CON(S(=O)(=O)C(F)F)C1 [Compound A231, N-[(4R)-2-(difluoromethylsulfonyl)-1,2-oxazolidin-4-yl]-2-methyl-4-[(5S)-5-(3,4,5-trichlorophenyl)-5-(trifluoromethyl)-4H-1,2-oxazol-3-yl]benzamide]
≥ 80%: mortality at 200 ppm (Thrips tabaci; [1]) | percent effect (mortality or growth inhibition) at 200 ppm (Euschistus heros) | mortality at 200 ppm (Spodoptera littoralis; [2]) | mortality at 200 ppm (Tetranychus urticae; [3]) | percent effect (mortality or growth inhibition) at 200 ppm (Plutella xylostella) | percent effect (mortality or growth inhibition) at 200 ppm (Diabrotica balteata) | mortality at 200 ppm (Myzus persicae; [4])

O=C(N[C@H]1CON(S(=O)(=O)NC2CC2)C1)c1ccc(C2=NO[C@@](c3cc(Cl)cc(Cl)c3)(C(F)(F)F)C2)cc1Cl [Compound A154]
≥ 80%: mortality at 200 ppm (Thrips tabaci; [1]) | percent effect (mortality or growth inhibition) at 200 ppm (Euschistus heros) | mortality at 200 ppm (Spodoptera littoralis; [2]) | mortality at 200 ppm (Tetranychus urticae; [3]) | percent effect (mortality or growth inhibition) at 200 ppm (Plutella xylostella) | percent effect (mortality or growth inhibition) at 200 ppm (Diabrotica balteata) | mortality at 200 ppm (Myzus persicae; [4])

Cc1cc(C2=NO[C@@](c3cc(Cl)c(Cl)c(Cl)c3)(C(F)(F)F)C2)ccc1C(=O)NC1CON(S(=O)(=O)NC(C)C)C1 (stereo partly drawn) [Compound A101, N-[2-(isopropylsulfamoyl)isoxazolidin-4-yl]-2-methyl-4-[(5S)-5-(3,4,5-trichlorophenyl)-5-(trifluoromethyl)-4H-isoxazol-3-yl]benzamide]
≥ 80%: mortality at 200 ppm (Thrips tabaci; [1]) | percent effect (mortality or growth inhibition) at 200 ppm (Euschistus heros) | mortality at 200 ppm (Spodoptera littoralis; [2]) | mortality at 200 ppm (Tetranychus urticae; [3]) | percent effect (mortality or growth inhibition) at 200 ppm (Plutella xylostella) | percent effect (mortality or growth inhibition) at 200 ppm (Diabrotica balteata) | mortality at 200 ppm (Myzus persicae; [4])

Cc1cc(C2=NO[C@](c3cc(Cl)c(Cl)c(Cl)c3)(C(F)(F)F)C2)ccc1C(=O)N[C@H]1CON(S(=O)(=O)CF)C1 [Compound A216, N-[(4R)-2-(fluoromethylsulfonyl)-1,2-oxazolidin-4-yl]-2-methyl-4-[(5R)-5-(3,4,5-trichlorophenyl)-5-(trifluoromethyl)-4H-1,2-oxazol-3-yl]benzamide]
≥ 80%: mortality at 200 ppm (Thrips tabaci; [1]) | percent effect (mortality or growth inhibition) at 200 ppm (Euschistus heros) | mortality at 200 ppm (Spodoptera littoralis; [2]) | mortality at 200 ppm (Tetranychus urticae; [3]) | percent effect (mortality or growth inhibition) at 200 ppm (Plutella xylostella) | percent effect (mortality or growth inhibition) at 200 ppm (Diabrotica balteata) | mortality at 200 ppm (Myzus persicae; [4])
